Non-standard residues stand in square brackets, D forms with d. Residues, ends and D or L forms follow the SMILES beside them. No end group written: not given here.
System: P450Blt (CYP1251 C3)
Test: Small scale enzymatic cyclisation
Assay type: biochemical, Micromonospora sp. MW-13
Conditions: for loss of P450Blt cyclisation activity compared to 1: fold reduction versus 1; for P450Blt-catalysed cyclisation, result in words: small scale enzymatic cyclisation, LCMS

Row | Molecule | P450Blt-catalysed cyclisation, result in words | also measured
1 | MNYLH-OH [compound 6] | – | loss of P450Blt cyclisation activity compared to 1: ≈ 2 fold
2 | MSYDH-OH [compound 7] | no further reduction in cyclisation than for 5 alone | –
3 | MRYWH-OH [compound 8] | almost totally abolished activity | –
4 | MRYLW [compound 24] | very effective | level of cyclisation as fraction of that of 1 (relative to 1): 2/3
5 | MSYLH-OH [compound 5] | – | loss of P450Blt cyclisation activity compared to 1: ≈ 6 fold
6 | fMRYLH-OH [f-1] | did not affect cyclisation | –
7 | CSCC[C@H](N)C(=O)N[C@@H](CCCNC(=N)N)C(=O)N[C@@H](Cc1ccc(O)cc1)C(=O)N[C@@H](CC(C)C)C(=O)N[C@H](Cc1c[nH]cn1)C(=O)O [compound 17] (H-MRYL[dH]-OH) | – | conversion relative to that of 1 (relative to 1): > 10%
8 | RYLH-OH [compound 2] | significantly reduced activity | –
